These results are taken from the supplement of paper PMC11208160.
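Also: IS621 recombinase and bridge RNA in Escherichia coli cells.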

The nature of this series: recombinant barcode read abundance after kanamycin selection (control-corrected) (log10(CPM+1)); higher = more efficient recombination; sequences stand for … in AGTGCAGAGAAAATCGGCCAGTTTTCTCTGCCTGCAGTCCGCATGCCGT…AGATTTATGCAGCGGACTGCCTTTCTCCCAAAGTGATAAACCGGACAGTATCATGGACCGGTTTTCCCGGTAATCCGTATTTGCAAGGTTGGTTTCACT; site = the 11-nt target. Put shortly: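 In a pooled screen in E. coli, targets were paired with target-binding loops of the IS621 bridge RNA. Each oligo carried a promoter, a target, a barcode and the first 104 bridge RNA bases driven by J23119, and was Gibson-cloned into a vector holding the remaining 73 bp and a T7-inducible recombinase before co-electroporation with a donor plasmid. Duplicate platings went onto chloramphenicol/ampicillin LB agar as the control or onto chloramphenicol/ampicillin/kanamycin with 0.1 mM IPTG. Recombination efficiency is the averaged, control-corrected count per million of barcodes at recombinant junctions, given as log10(CPM+1).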
“TGTGAGTCTTGGGTTCTAACCTGTTGCAT (site TGTGAGTCTAG)”: the “recombinant barcode read abundance (log10)” value amounted to 0.149.
As for “TGTGAGTCTTGGGTTCTAACCTGTTGCAT (site TGTGAGTCTAT)”, the “recombinant barcode read abundance (log10)” value is 1.7.
“TGTGATCCTTGGGTTCTAACCTGTTGCAT (site TGAGATTCTAT)”: the “recombinant barcode read abundance (log10)” value is 0.0352.
Take “TGTGATCCTTGGGTTCTAACCTGTTGCAT (site TGTGATCCTAT)”: the “recombinant barcode read abundance (log10)” value is 1.4.
To “TGTGCAACTTGGGTTCTAACCTGTTGCTG (site ATGCTTGCTTG)” belongs 0.353; to “TGTGCAACTTGGGTTCTAACCTGTTGCTG (site TGTGCAACTCA)”, 0.284.
Consider “TGTGGAGCTTGGGTTCTAACCTGTTGCCG (site TGTAGAGCTCG)”, for which the “recombinant barcode read abundance (log10)” value came out at 0.448.
To “TGTGGAGCTTGGGTTCTAACCTGTTGCCG (site TGTCGAGCTCG)” belongs 0.469; to “TGTGGAGCTTGGGTTCTAACCTGTTGCCG (site TGTGGAGCTCG)”, 1.24.
Take “TGTGGAGCTTGGGTTCTAACCTGTTGCCG (site TGTTGAGCTCG)”: the “recombinant barcode read abundance (log10)” value stood at 0.00933.
“TGTGTCCCTTGGGTTCTAACCTGTTGCCT (site TGAGTCCCTAG)”: the “recombinant barcode read abundance (log10)” value came to 0.159.
“TGTGTCCCTTGGGTTCTAACCTGTTGCCT (site TGCGTCCCTAG)”: the “recombinant barcode read abundance (log10)” value was found to be 0.139.
In the case of “TGTGTCCCTTGGGTTCTAACCTGTTGCCT (site TGGGTCCCTAG)”, the “recombinant barcode read abundance (log10)” value was found to be 0.123.
As to “TGTGTCCCTTGGGTTCTAACCTGTTGCCT (site TGTGTCCCTAG)”, the “recombinant barcode read abundance (log10)” value came out at 1.14.
For “TGTTAGTCTTGGGTTCTAACCTGTTGCCG (site TGTTAGACTAG)”, the “recombinant barcode read abundance (log10)” value came out at 0.0136.
Consider “TGTTAGTCTTGGGTTCTAACCTGTTGCCG (site TGTTAGTCTCG)”, for which the “recombinant barcode read abundance (log10)” value came to 0.0597.
The same measure for “TGTTCAGCTTGGGTTCTAACCTGTTGCCT (site CACAGGCCTCT)”: 0.0146; for “TGTTCAGCTTGGGTTCTAACCTGTTGCCT (site TGTTCAGCTAG)”: 0.066.
Take “TGTTCTACTTGGGTTCTAACCTGTTGCTT (site TGATCTACTAA)”: the “recombinant barcode read abundance (log10)” value stood at 0.0326.
For “TGTTCTACTTGGGTTCTAACCTGTTGCTT (site TGCTCTACTAA)”, the “recombinant barcode read abundance (log10)” value stood at 0.246.
“TGTTCTACTTGGGTTCTAACCTGTTGCTT (site TGGTCTACTAA)”: the “recombinant barcode read abundance (log10)” value turned out to be 0.0191.
The same measure for “TGTTCTACTTGGGTTCTAACCTGTTGCTT (site TGTTCTACTAA)”: 0.0296.
With “TGTTGAGCTTGGGTTCTAACCTGTTGCAG (site TGTAGAGCTCT)”, the “recombinant barcode read abundance (log10)” value turned out to be 0.148.
With “TGTTGAGCTTGGGTTCTAACCTGTTGCAG (site TGTTGAGCTCT)”, the “recombinant barcode read abundance (log10)” value is 0.468.
Consider “TGTTGGACTTGGGTTCTAACCTGTTGCTT (site TCTTAGACTAA)”, for which the “recombinant barcode read abundance (log10)” value amounted to 0.0262.
To “TGTTGGACTTGGGTTCTAACCTGTTGCTT (site TGTTGGACTAA)” belongs 0.16; to “TGTTGGTCTTGGGTTCTAACCTGTTGCTT (site GAACTCCCTCC)”, 0.0579.
Consider “TGTTGGTCTTGGGTTCTAACCTGTTGCTT (site TGTTGGTCTAA)”, for which the “recombinant barcode read abundance (log10)” value was 0.0212.
Take “TGTTGTCCTTGGGTTCTAACCTGTTGCTG (site AACATAACTAC)”: the “recombinant barcode read abundance (log10)” value stood at 0.141.
Take “TGTTGTCCTTGGGTTCTAACCTGTTGCTG (site TGTTGTCCTCA)”: the “recombinant barcode read abundance (log10)” value was 0.0482.
The same measure for “TGTTGTGCTTGGGTTCTAACCTGTTGCCT (site TGGCGTGCTAG)”: 0.101; for “TGTTGTGCTTGGGTTCTAACCTGTTGCCT (site TGTTGTGCTAG)”: 0.109; for “TTAAATCCTTGGGTTCTAACCTGTTGCCT (site ATAAATCCTAG)”: 0.143.
“TTAAATCCTTGGGTTCTAACCTGTTGCCT (site CTAAATCCTAG)”: the “recombinant barcode read abundance (log10)” value turned out to be 0.183.
To “TTAAATCCTTGGGTTCTAACCTGTTGCCT (site GTAAATCCTAG)” belongs 0.249; to “TTAAATCCTTGGGTTCTAACCTGTTGCCT (site TTAAATCCTAG)”, 0.219; to “TTAACGGCTTGGGTTCTAACCTGTTGCCT (site TTAACGGCTAG)”, 0.556.
For the sequence “TTAACGGCTTGGGTTCTAACCTGTTGCCT (site TTCACGGCTAG)”, the “recombinant barcode read abundance (log10)” value was 0.186.
The same measure for “TTACAGGCTTGGGTTCTAACCTGTTGCCG (site GGCATCCCTTA)”: 0.0374.
As for “TTACAGGCTTGGGTTCTAACCTGTTGCCG (site TTACAGGCTCG)”, the “recombinant barcode read abundance (log10)” value amounted to 1.13.
The same measure for “TTACCAACTTGGGTTCTAACCTGTTGCCT (site TTACCAACTAG)”: 1.61; for “TTACCAACTTGGGTTCTAACCTGTTGCCT (site TTACCCACTAG)”: 0.629; for “TTACCAACTTGGGTTCTAACCTGTTGCCT (site TTACCGACTAG)”: 0.0912.
In the case of “TTACCAACTTGGGTTCTAACCTGTTGCCT (site TTACCTACTAG)”, the “recombinant barcode read abundance (log10)” value turned out to be 0.12.
Regarding “TTACCGACTTGGGTTCTAACCTGTTGCCT (site TTACCAACTAG)”, the “recombinant barcode read abundance (log10)” value was 1.23.
In the case of “TTACCGACTTGGGTTCTAACCTGTTGCCT (site TTACCCACTAG)”, the “recombinant barcode read abundance (log10)” value was 0.242.
For the sequence “TTACCGACTTGGGTTCTAACCTGTTGCCT (site TTACCGACTAG)”, the “recombinant barcode read abundance (log10)” value came to 2.33.
Take “TTACCGACTTGGGTTCTAACCTGTTGCCT (site TTACCTACTAG)”: the “recombinant barcode read abundance (log10)” value was determined as 0.0567.
As to “TTACGTCCTTGGGTTCTAACCTGTTGCGG (site TCACGTCCTCC)”, the “recombinant barcode read abundance (log10)” value is 1.31.
For “TTACGTCCTTGGGTTCTAACCTGTTGCGG (site TTACGTCCTCC)”, the “recombinant barcode read abundance (log10)” value turned out to be 1.74.
In the case of “TTAGACCCTTGGGTTCTAACCTGTTGCAG (site AGGTCTACTTG)”, the “recombinant barcode read abundance (log10)” value worked out at 0.0942.
To “TTAGACCCTTGGGTTCTAACCTGTTGCAG (site TTAGACCCTCT)” belongs 3.46.
The same measure for “TTAGACCCTTGGGTTCTAACCTGTTGCCT (site ATAGACCCTAG)”: 1.3; for “TTAGACCCTTGGGTTCTAACCTGTTGCCT (site CTAGACCCTAG)”: 1.11; for “TTAGACCCTTGGGTTCTAACCTGTTGCCT (site GTAGACCCTAG)”: 0.341.
Take “TTAGACCCTTGGGTTCTAACCTGTTGCCT (site TTAGACCCTAG)”: the “recombinant barcode read abundance (log10)” value was found to be 2.99.
To “TTAGACTCTTGGGTTCTAACCTGTTGCCT (site TTAGACTCTAG)” belongs 2.48; to “TTAGACTCTTGGGTTCTAACCTGTTGCCT (site TTCGACGCTAG)”, 0.172.
Regarding “TTAGACTCTTGGGTTCTAACCTGTTGCTA (site TTAGACTCTTA)”, the “recombinant barcode read abundance (log10)” value stood at 2.36.
